Consider 55 compounds from US20260200890A1, “ADAR1 INHIBITORS AND METHODS OF USING THE SAME” (AVAMMUNE THERAPEUTICS INC., priority 2022, published 2026).

For the assay, the target named is T1, ADAR1 (Homo sapiens, UniProt P55265).
T1 construct: endogenous in cells; host or cells: p110 KO A549 dual cells
T1 sequence (P55265 1-1226): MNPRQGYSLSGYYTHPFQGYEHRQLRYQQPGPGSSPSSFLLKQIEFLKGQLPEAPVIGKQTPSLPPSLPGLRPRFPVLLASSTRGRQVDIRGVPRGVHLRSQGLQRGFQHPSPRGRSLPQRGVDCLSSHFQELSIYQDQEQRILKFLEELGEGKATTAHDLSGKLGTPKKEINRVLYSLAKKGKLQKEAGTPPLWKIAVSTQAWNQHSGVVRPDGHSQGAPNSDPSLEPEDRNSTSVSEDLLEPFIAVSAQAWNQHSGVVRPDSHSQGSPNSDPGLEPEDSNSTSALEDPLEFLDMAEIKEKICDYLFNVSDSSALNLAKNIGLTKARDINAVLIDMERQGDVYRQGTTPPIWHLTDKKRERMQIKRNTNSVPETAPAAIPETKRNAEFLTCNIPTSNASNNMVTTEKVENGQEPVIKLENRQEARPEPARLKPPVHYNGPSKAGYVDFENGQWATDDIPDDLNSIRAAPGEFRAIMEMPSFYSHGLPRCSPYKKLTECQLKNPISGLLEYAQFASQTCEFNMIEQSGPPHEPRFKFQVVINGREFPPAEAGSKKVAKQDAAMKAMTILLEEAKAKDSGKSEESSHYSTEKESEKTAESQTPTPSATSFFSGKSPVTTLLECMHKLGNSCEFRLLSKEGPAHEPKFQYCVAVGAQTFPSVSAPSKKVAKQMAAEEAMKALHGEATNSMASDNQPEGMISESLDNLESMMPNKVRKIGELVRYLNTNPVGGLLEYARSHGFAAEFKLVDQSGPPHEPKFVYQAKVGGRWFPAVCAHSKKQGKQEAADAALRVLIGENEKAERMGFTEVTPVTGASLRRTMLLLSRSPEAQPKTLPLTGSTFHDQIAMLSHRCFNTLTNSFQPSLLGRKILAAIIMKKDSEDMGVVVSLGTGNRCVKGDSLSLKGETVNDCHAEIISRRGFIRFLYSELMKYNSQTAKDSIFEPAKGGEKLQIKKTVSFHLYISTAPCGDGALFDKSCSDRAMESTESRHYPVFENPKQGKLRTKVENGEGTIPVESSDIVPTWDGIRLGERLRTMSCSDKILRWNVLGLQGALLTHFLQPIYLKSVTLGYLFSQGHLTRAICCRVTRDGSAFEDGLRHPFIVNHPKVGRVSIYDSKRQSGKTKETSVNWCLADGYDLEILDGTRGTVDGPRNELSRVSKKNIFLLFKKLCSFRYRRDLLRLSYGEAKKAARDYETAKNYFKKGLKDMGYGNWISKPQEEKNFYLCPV
Kind of assay: ADAR1 Inhibition Assay (IFN fold-induction, Quanti-Luc luminescence, p110 KO A549 dual cells). It counts as cell-based. Particulars: IFN fold-induction vs DMSO, 24 and 48 h. As to the method:
An ADAR1 Inhibition Assay was used to determine the biological activity (EC50) of compounds disclosed herein. 100 μL of p110 KO A549 dual cell suspension in supplemented DMEM (20,000 cells per well) was added into a flat bottom 96 well plate. Next day, post media change, 180 μL of supplemented DMEM was added. 20 μL of test compound or positive control was added to the respective wells (Final concentration of DMSO is 1%). The plate was incubated for 24 and 48 hours at 37° C. in a 5% CO2 incubator. After 24 and 48 h, 20 μL of cell suspension was taken in black well plates and 50 μL of Quanti-Luc was added to each well and luminescence was measured using a microplate reader (Spectra Max). IFN fold-induction was plotted considering DMSO as control using the relative luminescence unit (RLU) values. (Fold induction: Sample RLU/Average DMSO RLU).

As to `CCOC(=O)c1c(-c2ccccc2)csc1NC(=O)COC(=O)c1cccc(S(N)(=O)=O)c1` [Compound 3], the concentration giving a half-maximal response (EC50) (in general, the concentration at which the effect is half-maximal) is over 100 µM.
`CCOC(=O)c1cc(-c2ccccc2)sc1NC(=O)CNC(=O)c1cccc(S(=O)(=O)N(C)C)c1` [Compound 4] had a concentration for a half-maximal effect (EC50) of over 100 µM.
`CCOC(=O)c1cc(-c2ccccc2)sc1NC(=O)COC(=O)c1ccccc1` [Compound 5] returned a concentration for a half-maximal effect (EC50) of over 100 µM.
Compound `CCOC(=O)c1cc(-c2ccccc2)sc1NC(=O)CNC(=O)c1ccccc1` [Compound 6] registered an EC50 of over 100 µM.
Turning to `CCOC(=O)c1cc(-c2ccccc2)sc1NC(=O)COC(=O)c1cccc(S(=O)(=O)N(C)C)c1` [Compound 7], the EC50 was over 100 µM.
`CCOC(=O)c1cc(-c2ccccc2)sc1NC(=O)CNc1cccc(S(N)(=O)=O)c1` [Compound 8] returned an EC50 of over 100 µM.
Consider `COC(=O)c1nc(NC(=O)COC(=O)c2cccc(S(N)(=O)=O)c2)sc1Br` [Compound 9], for which the half-maximal effective concentration (EC50) was over 100 µM.
In the case of `CCOC(=O)c1cc(-c2ccccc2)sc1NC(=O)c1cccc(S(N)(=O)=O)c1` [Compound 10], the EC50 is over 100 µM.
As for `CCOC(=O)c1cc(-c2ccccc2)sc1NC(=O)CNC(=O)c1cccc(S(=O)(=O)NC)c1` [Compound 11], the EC50 was over 100 µM.
As for `CCOC(=O)c1cc(-c2ccccc2)sc1NC(=O)CN` [Compound 12], the EC50 is over 100 µM.
The value for `CCOC(=O)c1cc(-c2ccccc2)sc1NC(=O)CNCCS(N)(=O)=O` [Compound 14] was over 100 µM; that for `CCOC(=O)c1cc(-c2ccccc2)sc1NC(=O)CNc1cccc(S(=O)(=O)N(C)C)c1` [Compound 15] was over 100 µM.
For `CCOC(=O)c1cc(-c2ccccc2)sc1NC(=O)CNC(=O)c1ccc(Br)s1` [Compound 16], the half-maximal effective concentration (EC50) is over 100 µM.
On to `CCOC(=O)c1cc(-c2ccccc2)sc1NC(=O)CN(C)C` [Compound 17], for which the EC50 was over 100 µM.
Regarding `NS(=O)(=O)c1cccc(C(=O)NCC(=O)Nc2ccc(-c3ccccc3)s2)c1` [Compound 18], the EC50 was over 100 µM.
Regarding `NS(=O)(=O)c1cccc(NC(=O)CNC(=O)c2ccc(-c3cccnc3)s2)c1` [Compound 19], the EC50 was over 100 µM.
`NS(=O)(=O)c1cccc(NC(=O)CNC(=O)c2csc(-c3cccnc3)n2)c1` [Compound 20] returned an EC50 of over 100 µM.
Compound `CCOC(=O)c1cc(-c2ccccc2)sc1NC(=O)Nc1cccc(S(N)(=O)=O)c1` [Compound 21] had a 50% effective concentration (EC50) of over 100 µM.
For `COC(=O)c1ccsc1NC(=O)CNC(=O)c1cccc(S(N)(=O)=O)c1` [Compound 22], the concentration for a half-maximal effect (EC50) was over 100 µM.
For the compound `NS(=O)(=O)c1cccc(C(=O)NCC(=O)Nc2nc3ccccc3s2)c1` [Compound 23], the EC50 is over 100 µM.
As for `CCOC(=O)c1cc(-c2ccccc2)sc1NC(=O)CNC(=O)c1ccc(S(N)(=O)=O)cc1` [Compound 24], the figure is over 100 µM; as for `NS(=O)(=O)c1cccc(NC(=O)c2csc(-c3ccccc3)c2)c1` [Compound 25], over 100 µM.
Take `CCOC(=O)c1cc(-c2ccccc2)sc1NC(=O)CNS(=O)(=O)c1ccc(C)cc1` [Compound 27]: the EC50 is over 100 µM.
With `CCOC(=O)c1cc(-c2ccccc2)sc1NC(=O)CNC(=O)c1cccc(S(=O)(=O)N2CCOCC2)c1` [Compound 28], the concentration giving a half-maximal response (EC50) is over 100 µM.
The value for `CCOC(=O)c1cc(-c2ccccc2)sc1NC(=O)CNC(=O)c1cccc(S(=O)(=O)N2CCCC2)c1` [Compound 29] was over 100 µM.
`NS(=O)(=O)c1cccc(NC(=O)CNC(=O)c2csc(-c3ccccc3)c2)c1` [Compound 30] returned an EC50 of over 100 µM.
The value for `CCOC(=O)c1cc(-c2ccccc2)sc1NC(=O)CNC(=O)c1ccc(F)c(S(N)(=O)=O)c1` [Compound 31] was over 100 µM; that for `NS(=O)(=O)c1cccc(NC(=O)Cn2nnc(-c3ccccn3)n2)c1` [Compound 32] was over 100 µM.
For the compound `COC(=O)c1cc(-c2ccncc2)sc1NC(=O)c1cccc(S(N)(=O)=O)c1` [Compound 33], the concentration giving a half-maximal response (EC50) was over 100 µM.
Regarding `Cc1cccc(Cl)c1NC(=O)c1csc(NC(=O)c2cccc(S(N)(=O)=O)c2)n1` [Compound 35], the EC50 was over 100 µM.
Turning to `CCOC(=O)c1cc(-c2ccccc2)sc1NC(=O)CNC(=O)c1cccc(S(=O)(=O)N2CCCCC2)c1` [Compound 36], the concentration for a half-maximal effect (EC50) was over 100 µM.
In turn, `CCOC(=O)c1cc(-c2ccccc2)sc1NC(=O)COC(=O)c1cc(S(N)(=O)=O)ccc1F` [Compound 37] gave an EC50 of over 100 µM.
As for `COC(=O)c1cc(-c2ccncc2)sc1NC(=O)CNC(=O)c1cccc(S(N)(=O)=O)c1` [Compound 38], the figure is over 100 µM; as for `NS(=O)(=O)c1cccc(NC(=O)CNC(=O)c2ccc(-c3ccccc3)s2)c1` [Compound 40], over 100 µM; as for `CCOC(=O)c1cc(-c2ccccc2)sc1NC(=O)CNC(=O)c1cccc(S(=O)(=O)NC(C)C)c1` [Compound 41], over 100 µM.
Regarding `NS(=O)(=O)c1cccc(C(=O)NCC(=O)Nc2ccc3cc(Br)ccc3c2)c1` [Compound 43], the EC50 is over 100 µM.
For `CCOC(=O)c1cc(-c2ccccc2)sc1NC(=O)CNC(=O)c1cccc(S(=O)(=O)N2CCNCC2)c1` [Compound 47], the EC50 was over 100 µM.
In turn, `Cc1nc(-c2ccccc2)sc1C(=O)NCC(=O)Nc1cccc(S(N)(=O)=O)c1` [Compound 48] registered a concentration for a half-maximal effect (EC50) of over 100 µM.
The value for `NS(=O)(=O)c1cccc(C(=O)NCC(=O)Nc2nnc(-c3ccccc3)s2)c1` [Compound 49] was over 100 µM; that for `CCOC(=O)c1cc(-c2ccccc2)sc1NC(=O)COC(=O)c1cccc(C(N)=O)c1` [Compound 50] was over 100 µM; that for `CCOC(=O)c1cc(-c2cc(F)cc(F)c2)sc1NC(=O)COC(=O)c1cccc(S(N)(=O)=O)c1` [Compound 52] was over 100 µM.
For `CCOC(=O)c1cc(-c2ccccc2)sc1NC(=O)CNC(=O)c1cc(S(N)(=O)=O)ccc1C` [Compound 53], the half-maximal effective concentration (EC50) was over 100 µM.
The value for `CCOC(=O)c1c(NC(=O)COC(=O)c2cccc(S(N)(=O)=O)c2)sc(C)c1C` [Compound 54] was over 100 µM; that for `CCOC(=O)c1cc(-c2ccccc2)sc1NC(=O)c1cccc(S(=O)(=O)NC)c1` [Compound 55] was over 100 µM; that for `CCOC(=O)c1cc(-c2ccccc2)sc1NC(=O)CNC(=O)c1cc(S(N)(=O)=O)ccc1F` [Compound 56] was over 100 µM.
As for `COC(=O)c1nc(NC(=O)COC(=O)c2cccc(S(N)(=O)=O)c2)sc1-c1ccccc1` [Compound 57], the concentration giving a half-maximal response (EC50) is over 100 µM.
In the case of `CCOC(=O)c1cc(-c2ccccc2)sc1NC(=O)COC(=O)c1cccc(S(=O)(=O)N2CCOCC2)c1` [Compound 58], the EC50 was over 100 µM.
The compound `CCOC(=O)c1cc(-c2ccccc2)sc1NC(=O)COC(=O)c1cccc(S(=O)(=O)N2CCC(N)C2)c1` (stereo not shown) [Compound 59] showed a 50% effective concentration (EC50) of over 100 µM.
As to `CCOC(=O)c1cc(-c2ccccc2)sc1NC(=O)COC(=O)c1cccc(O)c1` [Compound 60], the 50% effective concentration (EC50) was over 100 µM.
Regarding `CCOC(=O)c1cc(-c2ccccc2)sc1NC(=O)CNS(=O)(=O)c1cccc(CO)c1` [Compound 61], the EC50 is over 100 µM.
In turn, `CCOC(=O)c1cc(-c2ccccc2)sc1NC(=O)COC(=O)c1cccc(OC(F)(F)F)c1` [Compound 63] yielded a 50% effective concentration (EC50) of over 100 µM.
Take `CCOC(=O)c1cc(-c2ccccc2)sc1NC(=O)COC(=O)c1cccc(C(C)=O)c1` [Compound 64]: the EC50 was at most 25 µM.
The value for `CCOC(=O)c1cc(-c2ccccc2)sc1NC(=O)COC(=O)c1cccc(S(C)(=O)=O)c1` [Compound 65] was over 100 µM.
Regarding `CCOC(=O)c1cc(-c2ccccc2)sc1NC(=O)COC(=O)c1ccc(S(N)(=O)=O)cc1` [Compound 68], the EC50 is over 100 µM.
As to `CCOC(=O)c1cc(-c2ccccc2)sc1NC(=O)COC(=O)c1ccc(F)c(S(N)(=O)=O)c1` [Compound 69], the EC50 was over 100 µM.
